Experimental findings from US11161856B2 (H. Lundbeck A/S, priority 2017, dated 2021) are described below.

SMILES strings stand for the structures.

One assay deals with T1, MGLL (Mus musculus, UniProt O35678).
T1 construct: Brain; from tissue; host or cells: mouse brain proteome
T1 sequence (O35678 1-303): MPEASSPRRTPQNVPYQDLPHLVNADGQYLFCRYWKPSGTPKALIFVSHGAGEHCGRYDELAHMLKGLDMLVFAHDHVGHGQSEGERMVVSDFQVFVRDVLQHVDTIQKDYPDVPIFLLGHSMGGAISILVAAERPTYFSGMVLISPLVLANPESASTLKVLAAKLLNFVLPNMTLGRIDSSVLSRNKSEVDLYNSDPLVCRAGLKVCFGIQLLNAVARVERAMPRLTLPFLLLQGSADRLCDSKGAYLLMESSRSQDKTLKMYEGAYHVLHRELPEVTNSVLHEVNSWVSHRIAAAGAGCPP
Description: In vitro competitive activity-based protein profiling, mouse brain proteome (MGLL). Type of assay: biochemical. As to conditions: concentration not given (μM).

The next assay concerns the target T2, ABHD6 (Mus musculus, UniProt Q8R2Y0).
T2 construct: Brain; from tissue; host or cells: mouse brain proteome
T2 sequence (Q8R2Y0 1-336): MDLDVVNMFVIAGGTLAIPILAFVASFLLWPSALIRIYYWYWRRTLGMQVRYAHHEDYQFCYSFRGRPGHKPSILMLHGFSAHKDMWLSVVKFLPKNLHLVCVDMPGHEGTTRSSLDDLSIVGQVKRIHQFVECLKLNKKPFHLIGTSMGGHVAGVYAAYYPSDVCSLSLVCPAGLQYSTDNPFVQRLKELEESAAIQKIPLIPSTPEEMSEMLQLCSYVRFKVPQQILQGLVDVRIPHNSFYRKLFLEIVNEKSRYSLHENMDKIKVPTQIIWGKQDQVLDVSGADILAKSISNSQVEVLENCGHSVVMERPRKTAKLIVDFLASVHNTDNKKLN
Description: In vitro competitive activity-based protein profiling, mouse brain proteome (ABHD6). As to conditions: mouse brain proteome; concentration not given (μM). Type of assay: biochemical. Here is the method:
[The source words this procedure for another target and reports this target under the same test.] In Vitro Competitive Activity-Based Protein Profiling.
Proteomes (human prefrontal cortex or cell membrane fractions) (50 μL, 1.0 mg/mL total protein concentration) were preincubated with varying concentrations of inhibitors at 37° C. After 30 min, FP-Rh or HT-01 (1.0 μL, 50 μM in DMSO) was added and the mixture was incubated for another 30 min at room temperature. Reactions were quenched with SDS loading buffer (15 μL-4×) and run on SDS-PAGE.

As for `CC(=O)N1CC2(CCN(c3ccccc3CN3CCCC34CN(C(=O)OC(C(F)(F)F)C(F)(F)F)C4)C2)C1` [Example 230, 1,1,1,3,3,3-Hexafluoropropan-2-yl 5-(2-(2-acetyl-2,6-diazaspiro[3,4]octan-6-yl)benzyl)-2,5-diazaspiro[3.4]octane-2-carboxylate], the “% Inh MGLL Brain (Mouse, μM)” value at MGLL was “## (## is between 25 and 75%)”. For the same compound, on ABHD6, the “% Inh ABHD6 Brain (Mouse, μM)” value is recorded as “# (# is ≤25%)”.

In the case of `CC(=O)N1CCC2(CC1)CCN(c1cc(C(F)(F)F)ccc1CN1CCN(C(=O)OC(C(F)(F)F)C(F)(F)F)CC1)C2` [Example 197, 1.1.1,3,3.3-Hexafluoropropan-2-yl 4-(2-(8-acetyl-2,8-diazaspiro[4.5]decan-2-yl)-4-(trifluoromethyl)benzyl)pipera zine-l-carboxylate], at MGLL, the “% Inh MGLL Brain (Mouse, μM)” value was “### (### is ≥75%)”. Moreover, the “% Inh ABHD6 Brain (Mouse, μM)” value at ABHD6 is “# (# is ≤25%)”.

As to `CS(=O)(=O)N1CCCC12CCN(c1cc(C(F)(F)F)ccc1CN1CCN(C(=O)OC(C(F)(F)F)C(F)(F)F)CC1)CC2` [Example 209, 1,1,1,3,3,3-Hexafluoropiopan-2-yl 4-(2-(1-(methylsulfonyl)-1.8-diazaspiro[4.5]decan-8-yl)-4-(trifluoromethyl)benzyl) piperazine-1-carboxylate], on MGLL, the “% Inh MGLL Brain (Mouse, μM)” value is given as “### (### is ≥75%)”. In addition, the “% Inh ABHD6 Brain (Mouse, μM)” value at ABHD6 was “# (# is ≤25%)”.

With `CS(=O)(=O)N1CC2CN(c3cc(C(F)(F)F)ccc3CN3CCN(C(=O)OC(C(F)(F)F)C(F)(F)F)CC3)CC2C1` (stereo not shown) [Example 201, 1,1,1,3,3,3-Hexafluoropropan-2-yl 4-(2-(5-(methylsulfonyl)hexahydropyrrolo[3,4-c]pyrrol-2(lH)-yl)-4-(tnfluoromethyl)benzyl)pipera zinc-1-carboxylate], the “% Inh MGLL Brain (Mouse, μM)” value on MGLL was “### (### is ≥75%)”. Also, the “% Inh ABHD6 Brain (Mouse, μM)” value on ABHD6 is “## (## is between 25 and 75%)”.

On to `O=C(OC(C(F)(F)F)C(F)(F)F)N1CC2(CCN(Cc3cccc(Oc4ccccc4)c3)CC2)C1` [Example 64, 1,1,1,3,3,3-Hexafluoropropan-2-yl 7-(3-phenoxybenzyl)-2,7-diazaspiro[3,5]nonane-2-carboxylate], for which the “% Inh MGLL Brain (Mouse, μM)” value at MGLL was “## (## is between 25 and 75%)”. For the same compound, the “% Inh ABHD6 Brain (Mouse, μM)” value on ABHD6 was “### (### is ≥75%)”.

As to `CS(=O)(=O)N1CCC2(CCN(c3cc(CN4CCCC45CN(C(=O)OC(C(F)(F)F)C(F)(F)F)C5)cc(C(F)(F)F)c3)CC2)C1` [Example 233, 1,1,1,3,3,3-Hexafluoropropan-2-yl 5-(3-(2-(methylsulfonyl)-2,8-diazaspiro[4.5]decan-8-yl)-5-(trifluoromethyl)benzyl)-2,5-diazaspiro[3.4]octane-2-carboxylate], the “% Inh MGLL Brain (Mouse, μM)” value on MGLL is “### (### is ≥75%)”. For the same compound, the “% Inh ABHD6 Brain (Mouse, μM)” value at ABHD6 is “## (## is between 25 and 75%)”.

For `O=C(OC(C(F)(F)F)C(F)(F)F)N1CCC2(CC1)CN(Cc1cccc(F)c1)C2` [Example 97, 1,1,1,3,3,3-Hexafluoropropan-2-yl 2-(3-fluorobenzyl)-2,7-diazaspiro[3.5]nonane-7-carboxylate], the “% Inh MGLL Brain (Mouse, μM)” value on MGLL was “### (### is ≥75%)”. Besides, the “% Inh ABHD6 Brain (Mouse, μM)” value on ABHD6 is listed as “### (### is ≥75%)”.

Consider `O=C(OC(C(F)(F)F)C(F)(F)F)N1CCC2(CC1)CN(Cc1ccc(C(F)(F)F)cc1)C2` [Example 69, 1,1,1,3,3,3-Hexafluoropropan-2-yl 2-(4-(trifluoromethyl)benzyl)-2,7-diazaspiro[3,5]nonane-7-carboxylate], for which, at MGLL, the “% Inh MGLL Brain (Mouse, μM)” value is reported as “### (### is ≥75%)”. Besides, the “% Inh ABHD6 Brain (Mouse, μM)” value at ABHD6 was “### (### is ≥75%)”.

For the compound `O=C(OC(C(F)(F)F)C(F)(F)F)N1CCC2(CC1)CN(Cc1c(Cl)cccc1N1CCCCC1)C2` [Example 45, 1,1,1,3,3,3-Hexafluoropropan-2-yl 2-(2-chloro-6-(piperidin-1-yl)benzyl)-2,7-diazaspiro[3,5]nonane-7-carboxylate], the “% Inh MGLL Brain (Mouse, μM)” value at MGLL is “### (### is ≥75%)”. For the same compound, the “% Inh ABHD6 Brain (Mouse, μM)” value at ABHD6 is reported as “### (### is ≥75%)”.

In the case of `CN1CC2(CCN(c3cc(Cl)ccc3CN3CCN(C(=O)OC(C(F)(F)F)C(F)(F)F)CC3)C2)C1` [Example 169, 1,1,1,3,3,3-Hexafluoropropan-2-yl 4-(4-chloro-2-(2-methyl-2,6-diazaspiro[3.4]octan-6-yl)benzyl)piperazine-1-carboxylate], the “% Inh MGLL Brain (Mouse, μM)” value at MGLL is “### (### is ≥75%)”. For the same compound, the “% Inh ABHD6 Brain (Mouse, μM)” value on ABHD6 was “# (# is ≤25%)”.

Regarding `CS(=O)(=O)N1CCC2(CCN(c3cccc(Cl)c3CN3CC4(CCN(C(=O)OC(C(F)(F)F)C(F)(F)F)CC4)C3)CC2)C1` [Example 61, 1,1,1,3,3,3-Hexafluoropropan-2-yl 2-(2-chloro-6-(2-(methylsulfonyl)-2,8-diazaspiro[4.5]decan-8-yl)benzyl)-2,7-diazaspiro[3.5]nonane-7-carboxylate], the “% Inh MGLL Brain (Mouse, μM)” value on MGLL is reported as “### (### is ≥75%)”. In addition, the “% Inh ABHD6 Brain (Mouse, μM)” value on ABHD6 is on record as “### (### is ≥75%)”.

On to `CC(=O)N1CCC2(CCN(c3cc(Cl)cc(CN4CCCC45CN(C(=O)OC(C(F)(F)F)C(F)(F)F)C5)c3)CC2)C1` [Example 234, 1,1,1,3,3,3-Hexafluoropropan-2-yl 5-(3-(2-acetyl-2,8-diazaspiro[4.5]decan-8-yl)-5-chlorobenzyl)-2,5-diazaspiro[3.4]octane-2-carboxylate], for which the “% Inh MGLL Brain (Mouse, μM)” value on MGLL was “# (# is ≤25%)”. Moreover, the “% Inh ABHD6 Brain (Mouse, μM)” value at ABHD6 is given as “### (### is ≥75%)”.

As to `O=C(OC(C(F)(F)F)C(F)(F)F)N1CC2(CCN(Cc3ccc(N4CCOCC4)cc3)CC2)C1` [Example 65, 1,1,1,3,3,3-Hexafluoropropan-2-yl 7-(4-morpholinobenzyl)-2,7-diazaspiro[3.5]nonane-2-carboxylate], the “% Inh MGLL Brain (Mouse, μM)” value at MGLL was “### (### is ≥75%)”. For the same compound, the “% Inh ABHD6 Brain (Mouse, μM)” value at ABHD6 is reported as “### (### is ≥75%)”.

Take `COc1ccc(CN2CC3(CCN(C(=O)OC(C(F)(F)F)C(F)(F)F)CC3)C2)cc1` [Example 85, 1,1,1,3,3,3-Hexafluoropropan-2-yl 2-(4-methoxybenzyl)-2,7-diazaspiro[3.5]nonane-7-carboxylate]: the “% Inh MGLL Brain (Mouse, μM)” value at MGLL was “### (### is ≥75%)”. Moreover, the “% Inh ABHD6 Brain (Mouse, μM)” value at ABHD6 was “### (### is ≥75%)”.

With `Cc1cc(N2CCOCC2)ccc1CN1CCC2(CC1)CN(C(=O)OC(C(F)(F)F)C(F)(F)F)C2` [Example 71, 1,1,1,3,3,3-Hexafluoropropan-2-yl 7-(2-methyl-4-morpholinobenzyl)-2,7-diazaspiro[3.5]nonane-2-carboxylate], the “% Inh MGLL Brain (Mouse, μM)” value at MGLL is “### (### is ≥75%)”. Moreover, on ABHD6, the “% Inh ABHD6 Brain (Mouse, μM)” value is on record as “### (### is ≥75%)”.

Take `CCN1CCC2(CC1)CCN(c1cc(Cl)cc(CN3CCCC34CN(C(=O)OC(C(F)(F)F)C(F)(F)F)C4)c1)C2` [Example 239, 1,1,1,3,3,3-Hexafluoropropan-2-yl 5-(3-chloro-5-(8-ethyl-2,8-diazaspiro[4.5]decan-2-yl)benzyl)-2,5-diazaspiro[3,4]octane-2-carboxylate]: the “% Inh MGLL Brain (Mouse, μM)” value on MGLL was “## (## is between 25 and 75%)”. For the same compound, the “% Inh ABHD6 Brain (Mouse, μM)” value on ABHD6 is “## (## is between 25 and 75%)”.

`CC(=O)N1CCCC12CCN(c1cc(Cl)ccc1CN1CCN(C(=O)OC(C(F)(F)F)C(F)(F)F)CC1)CC2` [Example 204, 1,1,1,3,3,3-Hexafluoropropan-2-yl 4-(2-(1-acetyl-1,8-diazaspiro[4.5]decan-8-yl)-4-chlorobenzyl)piperazine-l-carboxylate]: the “% Inh MGLL Brain (Mouse, μM)” value at MGLL was “### (### is ≥75%)”. On ABHD6, the “% Inh ABHD6 Brain (Mouse, μM)” value is reported as “# (# is ≤25%)”.

With `CCN1CC2(CCN(c3cc(Cl)cc(CN4CCCC45CN(C(=O)OC(C(F)(F)F)C(F)(F)F)C5)c3)CC2)C1` [Example 241, 1,1,1,3,3,3-Hexafluoropropan-2-yl 5-(3-chloro-5-(2-ethyl-2,7-diazaspiro[3,5]nonan-7-yl)benzyl)-2,5-diazaspiro[3,4]octane-2-carboxylate], on MGLL, the “% Inh MGLL Brain (Mouse, μM)” value was “# (# is ≤25%)”. Moreover, the “% Inh ABHD6 Brain (Mouse, μM)” value at ABHD6 was “# (# is ≤25%)”.

`CS(=O)(=O)N1CCC2(CCN(c3ccccc3CN3CCN(C(=O)OC(C(F)(F)F)C(F)(F)F)CC3)C2)C1` (stereo not shown) [Example 165, 1,1,1,3,3,3-Hexafluoropropan-2-yl 4-(2-(7-(methylsulfonyl)-2,7-diazaspiro[4.4]nonan-2-yl)benzyl)piperazine-1-carboxylate]: the “% Inh MGLL Brain (Mouse, μM)” value at MGLL is “### (### is ≥75%)”. Also, at ABHD6, the “% Inh ABHD6 Brain (Mouse, μM)” value was “# (# is ≤25%)”.

As for `Cc1cc(N2CCOCC2)ccc1CN1CC2(CCN(C(=O)OC(C(F)(F)F)C(F)(F)F)CC2)C1` [Example 82, 1,1,1,3,3,3-Hexafluoropropan-2-yl 2-(2-methyl-4-morpholinobenzyl)-2,7-diazaspiro[3.5]nonane-7-carboxylate], the “% Inh MGLL Brain (Mouse, μM)” value at MGLL was “### (### is ≥75%)”. On ABHD6, the “% Inh ABHD6 Brain (Mouse, μM)” value is “### (### is ≥75%)”.
